pIC50: −log10 of the molar value. Read-outs that look alike come from different tables or passages of the source.
Tests used:
[1] = test system: H460; assay: Cellular H460 viability assay (CellTiter-Glo, 72 hours); assay type: cell-based; conditions: Homo sapiens, NCI-H460
Experimental: (§1) All cell lines were routinely tested for mycoplasma.
(§2) The effect of the CDK7 inhibitor to inhibit the growth of target cancer cells was evaluated through the 72 hours time period of viability assay. Briefly, the candidate cell line ware plated in 96 well plate at the following density of cells respectively. […] DMSO solvent without compound served as a control and final DMSO concentration less than 0.1%. After 72 hours of incubation at 37° C., 5% CO2 incubator, cells were analyzed for the viability using the CellTiter-Glo Luminescent Cell Viability Assay (Promega, Cat #G7570). All viability assays were performed in duplicate and Luminescence was read using an Envision (Perkin Elmer, USA). Data was analyzed using XLfit software.

[2] = molecular target: T1, CDK2/Cyclin A (Homo sapiens, UniProt P24941); assay: Enzymatic assay for CDK2 (FRET based LANCE Ultra kinase assay); assay type: biochemical
T1 construct: purchased Invitrogen PV6290
Experimental: (§3) Enzymatic Binding Assay Protocol for CDK1, CDK2, CDK5 and CDK7
(§4) Inhibition activity of the respective compound on CDK kinase under Km value of ATP was tested in FRET based The LANCE® Ultra kinase assay (Perkin Elmer), which uses a ULight™-labeled peptide substrate and an appropriate Europium-labeled anti-phospho-antibody. Test compounds were made with DMSO solutions, and then 4-fold serial dilutions for 8 doses were prepared using automated liquid handler (POD810, LABCYTE) and 80 nL/well of diluted compound solutions were added into the 384-well plates (Greiner, Cat #784075). And then 68 nM of ULight-MBP peptide (Perkin Elmer, Cat #TRF0109-M) and 5 ul/well of ATP (Sigma, Cat #A7699) were added to the plate. After 1 min centrifugation at 1000 rpm, Purified CDKs/Cyclin complex were added following concentrations respectively. 24 uM for CDK1/Cyclin B (Invitrogen, Cat #PR4768C), 22 uM for CDK2/Cyclin A (Invitrogen, Cat #PV6290), 10 uM for CDK5/p25 (Invitrogen, Cat #PR8543B) and […] for CDK7/Cyclin H/MNAT1 (Invitrogen, Cat #PR6749B) were added to the each corresponding plate for CDK1, CDK2, CDK5 and CDK7. Incubate at 23° C. for 60 min and then Eu-labeled anti-phospho-Myelin Basic Protein (PE, Cat #TRF0201-M) and EDTA (Invitrogen, Cat #15575038) mixture in Lance Detection Buffer (Perkin Elmer, Cat #CR97100) was added in each well. After additional incubation at 23° C. for 60 min, test articles were measured the fluorescence using Envision leader (Perkin Elmer, USA) [Laser as excitation light; […] as the first and the second emission filter]. Data was analyzed using XL Fit software.

[3] = molecular target: T2, CDK1/Cyclin B (Homo sapiens, UniProt P06493); assay: Enzymatic assay for CDK1 (FRET based LANCE Ultra kinase assay); assay type: biochemical
T2 construct: purchased Invitrogen PR4768C
T2 sequence (P06493 whole entry): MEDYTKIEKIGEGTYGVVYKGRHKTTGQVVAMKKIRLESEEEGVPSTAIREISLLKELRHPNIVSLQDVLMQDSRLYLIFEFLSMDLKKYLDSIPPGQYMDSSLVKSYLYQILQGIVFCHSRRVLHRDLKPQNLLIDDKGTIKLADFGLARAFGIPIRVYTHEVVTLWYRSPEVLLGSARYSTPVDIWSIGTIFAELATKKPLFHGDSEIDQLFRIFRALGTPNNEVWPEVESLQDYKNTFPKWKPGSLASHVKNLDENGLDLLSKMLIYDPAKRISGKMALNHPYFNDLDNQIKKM
T2 sequence (P14635 whole entry partner): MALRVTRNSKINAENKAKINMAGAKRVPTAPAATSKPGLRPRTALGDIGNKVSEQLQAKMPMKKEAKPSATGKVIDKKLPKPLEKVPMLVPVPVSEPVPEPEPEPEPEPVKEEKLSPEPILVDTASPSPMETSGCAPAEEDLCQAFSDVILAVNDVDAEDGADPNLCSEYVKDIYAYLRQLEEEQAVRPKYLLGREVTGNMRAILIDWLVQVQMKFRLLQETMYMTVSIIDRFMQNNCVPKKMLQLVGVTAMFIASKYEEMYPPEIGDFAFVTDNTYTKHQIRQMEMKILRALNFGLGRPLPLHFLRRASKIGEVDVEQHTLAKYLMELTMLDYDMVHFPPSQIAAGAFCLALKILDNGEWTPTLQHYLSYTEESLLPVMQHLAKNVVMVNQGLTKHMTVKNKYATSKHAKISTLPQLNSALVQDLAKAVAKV
Experimental: as §3, §4

[4] = test system: MV4-11; assay: Cellular MV4-11 viability assay (CellTiter-Glo, 72 hours); assay type: cell-based; conditions: Homo sapiens
Experimental: as §1, §2

[5] = molecular target: T3, CDK5/p25 (Homo sapiens, UniProt Q00535); assay: Enzymatic assay for CDK5 (FRET based LANCE Ultra kinase assay); assay type: biochemical
T3 construct: purchased Invitrogen PR8543B
T3 sequence (Q00535 whole entry): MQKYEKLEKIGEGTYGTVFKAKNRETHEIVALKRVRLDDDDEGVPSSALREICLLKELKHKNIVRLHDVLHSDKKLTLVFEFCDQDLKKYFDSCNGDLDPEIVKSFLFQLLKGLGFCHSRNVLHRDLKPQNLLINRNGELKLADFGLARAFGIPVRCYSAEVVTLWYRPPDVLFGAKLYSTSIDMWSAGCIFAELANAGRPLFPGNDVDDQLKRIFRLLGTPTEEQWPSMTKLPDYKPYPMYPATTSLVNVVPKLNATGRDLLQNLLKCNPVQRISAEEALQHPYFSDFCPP
T3 sequence (Q15078 99-307 partner limits assumed): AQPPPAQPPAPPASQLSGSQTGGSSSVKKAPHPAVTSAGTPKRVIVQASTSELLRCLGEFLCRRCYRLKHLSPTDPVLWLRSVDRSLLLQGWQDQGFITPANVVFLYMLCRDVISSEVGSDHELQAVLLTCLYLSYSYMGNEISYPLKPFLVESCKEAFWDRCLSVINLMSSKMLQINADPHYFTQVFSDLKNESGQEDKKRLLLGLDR
Experimental: as §3, §4

[6] = molecular target: T4, CDK7/Cyclin H/MNAT1 (Homo sapiens, UniProt P50613); assay: Enzymatic assay for CDK7 (FRET based LANCE Ultra kinase assay); assay type: biochemical
T4 construct: purchased Invitrogen PR6749B
T4 sequence (P50613 whole entry): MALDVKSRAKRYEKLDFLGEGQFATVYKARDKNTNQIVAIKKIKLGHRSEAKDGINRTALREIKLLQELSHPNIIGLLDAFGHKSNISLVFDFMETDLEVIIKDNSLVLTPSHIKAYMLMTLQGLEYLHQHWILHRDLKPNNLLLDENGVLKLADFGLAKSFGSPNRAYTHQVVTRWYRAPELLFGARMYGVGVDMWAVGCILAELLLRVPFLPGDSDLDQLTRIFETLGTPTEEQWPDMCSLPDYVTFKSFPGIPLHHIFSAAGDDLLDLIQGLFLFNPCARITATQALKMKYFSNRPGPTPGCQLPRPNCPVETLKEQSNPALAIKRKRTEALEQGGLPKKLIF
T4 sequence (P51946 whole entry partner): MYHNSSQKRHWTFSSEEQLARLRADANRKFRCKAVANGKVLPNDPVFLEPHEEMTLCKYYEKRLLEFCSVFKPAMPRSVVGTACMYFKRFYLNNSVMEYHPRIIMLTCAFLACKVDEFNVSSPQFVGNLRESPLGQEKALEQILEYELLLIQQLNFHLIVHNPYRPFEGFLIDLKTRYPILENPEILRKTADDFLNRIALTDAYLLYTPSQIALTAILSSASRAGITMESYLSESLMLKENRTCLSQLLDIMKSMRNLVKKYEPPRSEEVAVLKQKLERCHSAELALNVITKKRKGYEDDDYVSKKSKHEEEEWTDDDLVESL
T4 sequence (P51948 whole entry partner): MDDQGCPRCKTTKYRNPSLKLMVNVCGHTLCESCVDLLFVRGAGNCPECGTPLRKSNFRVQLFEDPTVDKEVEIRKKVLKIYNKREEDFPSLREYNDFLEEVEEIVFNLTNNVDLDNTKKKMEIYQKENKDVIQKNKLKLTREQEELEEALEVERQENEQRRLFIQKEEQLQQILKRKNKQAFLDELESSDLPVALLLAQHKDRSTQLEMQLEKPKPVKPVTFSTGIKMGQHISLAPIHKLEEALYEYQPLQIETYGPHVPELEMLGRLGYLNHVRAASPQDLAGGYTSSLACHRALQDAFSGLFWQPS
Experimental: as §3
Inhibition activity of the respective compound on CDK kinase under Km value of ATP was tested in FRET based The LANCE® Ultra kinase assay (Perkin Elmer), which uses a ULight™-labeled peptide substrate and an appropriate Europium-labeled anti-phospho-antibody. […] After 1 min centrifugation at 1000 rpm, Purified CDKs/Cyclin complex were added following concentrations respectively. […] Data was analyzed using XL Fit software.

[7] = test system: HCT116; assay: Cellular HCT116 viability assay (CellTiter-Glo, 72 hours); assay type: cell-based; conditions: Homo sapiens, HCT-116
Experimental: as §1, §2

[8] = read-out: CDK2 enzymatic activity (IC50 range)
[9] = read-out: CDK1 enzymatic activity (IC50 range)
[10] = read-out: CDK5 enzymatic activity (IC50 range)
[11] = read-out: CDK7 enzymatic activity (IC50 range)

Compound	pIC50 [1]	pIC50 [2, 8]	pIC50 [3, 9]	pIC50 [4]	pIC50 [5, 10]	CDK1/CDK7: Selectivity of CDK7 inhibition over CDK1 inhibition ([6]; CDK7 over CDK1)	CDK2/CDK7: Selectivity of CDK7 inhibition over CDK2 inhibition ([6]; CDK7 over CDK2)	CDK5/CDK7: Selectivity of CDK7 inhibition over CDK5 inhibition ([6]; CDK7 over CDK5)	pIC50 [6, 11]	pIC50 [7]	pIC50 ([2]; read-out: CDK2 enzymatic activity (IC50 activity range))	pIC50 ([3]; read-out: CDK1 enzymatic activity (IC50 activity range))	pIC50 ([5]; read-out: CDK5 enzymatic activity (IC50 activity range))	CDK1/CDK7: Selectivity of CDK7 inhibition over CDK1 inhibition ([6]; CDK1/CDK7)	CDK2/CDK7: Selectivity of CDK7 inhibition over CDK2 inhibition ([6]; CDK2/CDK7)	CDK5/CDK7: Selectivity of CDK7 inhibition over CDK5 inhibition ([6]; CDK5/CDK7)	pIC50 ([6]; read-out: CDK7 enzymatic activity (IC50 activity range))
CC(C)c1cnn2c(NCc3ccccc3-n3ccc(C(C)(C)O)n3)nc(NCC3(O)CCNCC3)nc12 [Compound 229]	5.00 to 6.00	6.00 to 7.00	< 6.00	5.00 to 6.00	6.00 to 7.00	B (B=less than 200 fold, but greater than 20 fold)	C (C=less than 20 fold)	C (C=less than 20 fold)	> 7.00	5.00 to 6.00	–	–	–	–	–	–	–
CC(C)c1cnn2c(NCc3c(Cl)cccc3-n3cc(N4CCOCC4)cn3)nc(N3CCC(N)CC3)nc12 [Compound 203]	> 6.00	< 6.00	< 6.00	> 6.00	< 6.00	A (A=greater than 200 fold)	A (A=greater than 200 fold)	A (A=greater than 200 fold)	> 7.00	> 6.00	–	–	–	–	–	–	–
CC(C)c1cnn2c(NCc3c(Cl)cccc3N3CCOCC3)nc(N3CCC(N)CC3)nc12 [Compound 206]	> 6.00	< 6.00	< 6.00	> 6.00	6.00 to 7.00	A (A=greater than 200 fold)	A (A=greater than 200 fold)	B (B=less than 200 fold, but greater than 20 fold)	> 7.00	> 6.00	–	–	–	–	–	–	–
CCC(=O)N1CCc2nn(-c3cccc(Cl)c3CNc3cc(O[C@@H]4CCCNC4)nc4c(C(C)C)cnn34)cc2C1 [Compound 211]	5.00 to 6.00	< 6.00	< 6.00	5.00 to 6.00	< 6.00	A (A=greater than 200 fold)	A (A=greater than 200 fold)	A (A=greater than 200 fold)	> 7.00	5.00 to 6.00	–	–	–	–	–	–	–
CC(C)c1cnn2c(NCc3c(Cl)cccc3Cl)nc(N3CCC(N)CC3)nc12 [Compound 257]	> 6.00	–	–	> 6.00	–	–	–	–	–	> 6.00	6.00 to 7.00	< 6.00	6.00 to 7.00	A (A=greater than 200 fold)	B (B=less than 200 fold, but greater than 20 fold)	B (B=less than 200 fold, but greater than 20 fold)	> 7.00
CC(C)c1cnn2c(NCc3ccccc3-c3ccc4ccccc4n3)nc(NCC(O)CCN)nc12 (racemic) [Compound 240]	> 6.00	< 6.00	< 6.00	> 6.00	< 6.00	A (A=greater than 200 fold)	A (A=greater than 200 fold)	A (A=greater than 200 fold)	> 7.00	> 6.00	–	–	–	–	–	–	–
CC(C)c1cnn2c(NCc3ccccc3-n3cc(C(=O)NC4CCOCC4)cn3)nc(N3CCC(N)CC3)nc12 [Compound 155]	> 6.00	6.00 to 7.00	6.00 to 7.00	> 6.00	> 7.00	A (A=greater than 200 fold)	B (B=less than 200 fold, but greater than 20 fold)	B (B=less than 200 fold, but greater than 20 fold)	> 7.00	> 6.00	–	–	–	–	–	–	–
CNC(=O)c1cccc(-c2cnn(-c3ccccc3CNc3nc(N4CCC(N)CC4)nc4c(C(C)C)cnn34)c2)c1 [Compound 151]	> 6.00	6.00 to 7.00	6.00 to 7.00	> 6.00	6.00 to 7.00	A (A=greater than 200 fold)	B (B=less than 200 fold, but greater than 20 fold)	B (B=less than 200 fold, but greater than 20 fold)	> 7.00	> 6.00	–	–	–	–	–	–	–
CC(C)c1cnn2c(NCc3ccccc3-n3ccc(C(C)(C)O)n3)nc(N3CCC(N)CC3)nc12 [Compound 236]	> 6.00	6.00 to 7.00	6.00 to 7.00	> 6.00	6.00 to 7.00	A (A=greater than 200 fold)	B (B=less than 200 fold, but greater than 20 fold)	B (B=less than 200 fold, but greater than 20 fold)	> 7.00	> 6.00	–	–	–	–	–	–	–
CC(C)c1cnn2c(NCc3ccccc3-c3ccc4ccccc4n3)nc(NCC3CCNCC3)nc12 [Compound 209]	> 6.00	< 6.00	< 6.00	> 6.00	< 6.00	A (A=greater than 200 fold)	A (A=greater than 200 fold)	A (A=greater than 200 fold)	> 7.00	> 6.00	–	–	–	–	–	–	–
CC(C)c1cnn2c(NCc3c(Cl)cccc3-n3ccc(CO)n3)nc(N3CCC(N)CC3)nc12 [Compound 207]	> 6.00	< 6.00	< 6.00	> 6.00	6.00 to 7.00	A (A=greater than 200 fold)	A (A=greater than 200 fold)	B (B=less than 200 fold, but greater than 20 fold)	> 7.00	> 6.00	–	–	–	–	–	–	–

From patent US11945822B2, “Pyrazolo-triazine and/or pyrazolo-pxrimidine derivatives as selective inhibitor of cyclin dependent kinase” (QURIENT CO., LTD., priority 2018, dated 2024)
